IC50 data for eleven molecules are collected here from patent publication US20230310445A1, “LOX ENZYME INHIBITING METHODS AND COMPOSITIONS” (ANOVIA BIOSCIENCES, INC., priority 2020, published 2023).

pIC50: −log10 of the molar value.

Experiment [1] has as its target T1, Bovine lysyl oxidase (LOX) (Bos taurus, UniProt P33072).
T1 construct: from tissue; host or cells: adult bovine tendon
T1 sequence (P33072 170-418): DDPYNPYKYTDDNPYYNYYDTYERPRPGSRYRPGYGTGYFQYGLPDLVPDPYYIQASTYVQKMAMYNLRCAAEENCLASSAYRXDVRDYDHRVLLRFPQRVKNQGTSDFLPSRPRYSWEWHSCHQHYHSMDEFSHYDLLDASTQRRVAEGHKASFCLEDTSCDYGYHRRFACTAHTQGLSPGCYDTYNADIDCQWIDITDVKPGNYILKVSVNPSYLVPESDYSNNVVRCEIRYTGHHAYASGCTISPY
As to the kind of experiment: LOX inhibition assay (fluorometric, cadaverine/Amplex Red/HRP). The class given is biochemical. As to conditions: IC50 class; bovine tendon LOX, cadaverine substrate; read-out: Activity Range LOX. The protocol: (§1) The ability of compounds to inhibit prototypic LOX was determined using a fluorometric assay. This assay measures the activity of lysyl oxidases by coupling the reaction with horseradish peroxidase-catalyzed […]. The activity assay protocol uses cadaverine as substrate that releases hydrogen peroxide upon transformation by prototypic LOX enzyme present in the sample. Hydrogen peroxide is in turn detected using a red fluorescence substrate for HRP-coupled reactions (Amplex Red Enzyme Assays, Thermo Scientific Fisher). This leads to increase in fluorescence that can be easily detected at Ex/Em=540/590 nm in a fluorescence microplate reader.
Enzyme: Bovine lysyl oxidase (LOX) was extracted by adapting the methodology from [Kagan et al. 1979 and Borel et al. 2001.] from bovine tendon: Frozen adult bovine tendon was placed in room temperature water to defrost, and then membranes were removed and the remaining tissue cut into 1 cm pieces. The material was first passed through a course mesh meat grinder, and this mince was passed through a fine mesh grinder. The mince was homogenized in 10 v/w of buffer (16 mM sodium phosphate buffer pH 7.8, 400 mM NaCl) using a Waring blender. The homogenate was centrifuged at 15,000×g for 15 min at 4° C. After centrifugation, the supernatant was discarded and the pellets resuspended in 10 volumes of the same buffer. The mixture was blended again and centrifuged with the same settings. This time the pellets were blended in 3 volumes of extraction buffer (16 mM sodium phosphate buffer pH 7.8) and left to incubate at 4° C. for 2 h. After this time, the slurry was centrifuged with the same settings as described above. The supernatant was used in an ultrafiltration step to remove large proteins by size exclusion through a 30 kDalton filter (EMD Millipore). The filtrate was mixed with DEAE Sephadex (GE Healthcare), or passed over a MonoQ FPLC column. After two washes, one in 16 mM sodium phosphate buffer pH 7.8, 380 mM NaCl, and another in 16 mM sodium phosphate buffer pH 7.8, the proteins were eluted with 16 mM sodium phosphate pH 7.8, 10 μM CuSO4, and 4 M urea. Fractions containing Lox activity were collected and stored frozen at −70° C.
Reaction: Final concentration in the LOX assay was as following and performed in a total volume of […]:
Experimental procedure: 7 μl of freshly prepared reaction buffer were delivered to reaction wells. Compounds were resuspended in 100% DMSO at 10 mM and delivered into buffer using acoustic technology (Echo550; nanoliter range). A 2.85× solution of LOX protein in reaction buffer was prepared (“LOX solution”) and 7 μl of LOX solution was added into the reaction wells. Buffer only was added to column 1 for no protein control. Reactions were incubated for 30 minutes at 37° C. A 3.33× mixture of cadaverine, Amplex Red, and HRP (“Substrate/Detection Mix) was prepared and subsequently 6 μL of the mixture was added to each reaction well. Progress of reactions was monitored for 120 minutes at 37° C. using Clariostar plate reader (ex530-12, ems 600-40). For all activity assays, pan-LOX inhibitor CCT365623 (Tang et al, 2017) and LOXL2/LOXL3 inhibitor PAT-1251 (PharmaKea) were included as standards.
Data analysis: Slope of the linear portion of the progress curve was calculated using Clariostar software. Typical analysis interval was between 20-50 min, but varied between experiments. The background subtracted signals (No protein wells were considered as background) were converted to % activity relative to DMSO controls. Data was analyzed using GraphPad Prism 4 with “sigmoidal dose-response (variable slope)”; 4 parameters with Hill Slope. Constraints: Bottom=Constant equal to 0. Top=Must be less than 120.

Experiment [2] has as its target T2, Recombinant human LOXL2 (lysyl oxidase like 2) (Homo sapiens, UniProt Q9Y4K0).
T2 construct: purchased R&D systems
T2 sequence (Q9Y4K0 26-774): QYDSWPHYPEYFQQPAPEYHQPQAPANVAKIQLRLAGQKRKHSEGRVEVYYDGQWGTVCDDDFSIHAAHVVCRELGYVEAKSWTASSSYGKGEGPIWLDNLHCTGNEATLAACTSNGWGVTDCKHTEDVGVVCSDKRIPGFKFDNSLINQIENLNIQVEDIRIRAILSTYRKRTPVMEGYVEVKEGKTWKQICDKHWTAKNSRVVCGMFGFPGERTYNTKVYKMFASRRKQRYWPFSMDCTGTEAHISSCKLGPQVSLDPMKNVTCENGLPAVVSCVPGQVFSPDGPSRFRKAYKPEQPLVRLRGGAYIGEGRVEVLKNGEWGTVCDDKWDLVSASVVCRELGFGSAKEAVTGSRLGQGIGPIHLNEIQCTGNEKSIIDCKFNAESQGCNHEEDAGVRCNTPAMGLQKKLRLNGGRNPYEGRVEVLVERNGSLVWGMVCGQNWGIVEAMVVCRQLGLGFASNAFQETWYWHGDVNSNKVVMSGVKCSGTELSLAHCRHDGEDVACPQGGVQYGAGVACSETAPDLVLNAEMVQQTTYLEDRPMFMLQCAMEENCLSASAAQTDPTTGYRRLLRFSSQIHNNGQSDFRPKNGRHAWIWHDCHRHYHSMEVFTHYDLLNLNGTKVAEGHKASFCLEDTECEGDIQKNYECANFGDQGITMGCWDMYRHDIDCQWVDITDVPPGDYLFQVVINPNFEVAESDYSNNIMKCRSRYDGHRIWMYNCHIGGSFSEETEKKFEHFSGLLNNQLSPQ
As to the kind of experiment: LOXL2 inhibition assay (fluorometric, cadaverine/Amplex Red/HRP). The format is biochemical. As to conditions: IC50 class; recombinant human LOXL2, cadaverine substrate; read-out: Activity Range LOXL2. As to the method:
as §1, with “inhibit one or more of the lysyl oxidases LOXL2 and/or LOXL3” for “inhibit prototypic LOX”, “by the specific” for “by prototypic”, “LOX family” for “LOX”
Enzymes: Recombinant human LOXL2 (lysyl oxidase like 2) and recombinant human LOXL3 (lysyl oxidase like 3) were purchased from R&D systems and assays were performed in 1.2 M urea, 50 mM sodium borate buffer pH 8.0, and 10 mM CaCl.
Reaction: Final concentration in the LOXL2 and LOXL3 assays were as following and performed in a total volume of […]:
Experimental procedure: 5 μl of freshly prepared reaction buffer were delivered to reaction wells. Compounds were resuspended in 100% DMSO at 10 mM and delivered into buffer using acoustic technology (Echo550; nanoliter range). A 3× solution of LOXL2 or LOXL3 in reaction buffer was prepared (“enzyme solution”) and 5 μL of enzyme solution was added into the reaction wells. Buffer only was added to column 1 for no protein control. Reactions were incubated for 30 minutes at 37° C. A 3×mixture of cadaverine, Amplex Red, and HRP (“Substrate/Detection Mix) was prepared and subsequently 5 μL of the mixture added to each reaction well. Progress of reactions was monitored for 60 minutes at 37° C. using Clariostar plate reader (ex 530-12, ems 600-40). For all activity assays, pan-LOX inhibitor CCT365623 (Tang et al, 2017) and LOXL2/LOXL3 inhibitor PAT-1251 (PharmaKea) were included as standards.
Data analysis: Slope of the linear portion of the progress curve was calculated using Clariostar software. Typical analysis interval was between 8-30 min, but varied between experiments. The background subtracted signals (No protein wells are considered as background) were converted to % activity relative to DMSO controls. Data was analyzed using GraphPad Prism 4 with “sigmoidal dose-response (variable slope)”; 4 parameters with Hill Slope. Constraints: Bottom=Constant equal to 0. Top=Must be less than 120.

Regarding `CN(C)C(=O)[C@H]1C[C@@H](c2ccccc2)CN(S(=O)(=O)c2ccc(CN)s2)C1` (racemic) [Example 9, cis-1-((5-(Aminomethyl)thiophen-2-yl)sulfonyl)-N,N-dimethyl-5-phenylpiperidine-3-carboxamide 2,2,2-trifluoroacetate], the pIC50 in experiment [1] was 6.00 to 6.30; in experiment [2], not below 6.30.

As to `CS(=O)(=O)N1CCN(C(=O)[C@H]2C[C@@H](c3ccccc3)CN(S(=O)(=O)c3ncc(CN)s3)C2)CC1` (racemic) [Example 113, cis-(1-((5-(Aminomethyl)thiazol-2-yl)sulfonyl)-5-phenylpiperidin-3-yl)(4-(methylsulfonyl)piperazin-1-yl)methanone 2,2,2-trifluoroacetate], the pIC50 is 4.52 to 6.00 in experiment [1] and not below 6.30 in experiment [2].

On to `NCc1cccc(S(=O)(=O)[C@H]2C[C@H](C(=O)N3CCOCC3)CN(C3CCCCC3)C2)c1` (racemic) [Example 142T, trans-(5-((3-(Aminomethyl)phenyl)sulfonyl)-1-cyclohexylpiperidin-3-yl)(morpholino)methanone 2,2,2-trifluoroacetate], for which the results for the pIC50 in experiment [1] and in experiment [2] were less than 4.52 and not below 6.30, respectively.

As for `NCc1cccc(S(=O)(=O)N2C[C@@H](C(=O)N3CCS(=O)(=O)CC3)C[C@@H](C(F)(F)F)C2)c1` (racemic) [Example 99, cis-(1-((3-(Aminomethyl)phenyl)sulfonyl)-5-(trifluoromethyl)piperidin-3-yl)(1,1-dioxidothiomorpholino)methanone 2,2,2-trifluoroacetate], the pIC50 is less than 4.52 in experiment [1] and 4.52 to 6.00 in experiment [2].

For `CC(N)c1cccc(S(=O)(=O)N2C[C@H](C(=O)N3CCOCC3)C[C@@H](c3ccccc3)C2)c1` (mixture of isomers) [Example 102TR, trans-(1-((3-(1-Aminoethyl)phenyl)sulfonyl)-5-phenylpiperidin-3-yl)(morpholino)methanone 2,2,2-trifluoroacetate], the pIC50 in experiment [1] and in experiment [2] was less than 4.52 throughout.

As for `CN1CCN(C(=O)[C@H]2C[C@@H](c3ccccc3)CN(S(=O)(=O)c3ccc(CN)s3)C2)CC1` (racemic) [Example 17, cis-(1-((5-(Aminomethyl)thiophen-2-yl)sulfonyl)-5-phenylpiperidin-3-yl)(4-methylpiperazin-1-yl)methanone 2,2,2-trifluoroacetate], the pIC50 in experiment [1] is 6.00 to 6.30; in experiment [2], not below 6.30.

Regarding `NCc1cnc(S(=O)(=O)N2C[C@H](C(=O)N3CCS(=O)(=O)CC3)C[C@@H](c3ccccc3)C2)s1` (racemic) [Example 112T, trans-(1-((5-(Aminomethyl)thiazol-2-yl)sulfonyl)-5-phenylpiperidin-3-yl)(1,1-dioxidothiomorpholino)methanone 2,2,2-trifluoroacetate], the pIC50 is 4.52 to 6.00 in experiment [1] and 6.00 to 6.30 in experiment [2].

As to `CS(=O)(=O)N1C[C@@H](c2ccccc2)C[C@@H](S(=O)(=O)c2cccc(CN)c2)C1` (racemic) [Example 27, cis-(3-((1-(Methylsulfonyl)-5-phenylpiperidin-3-yl)sulfonyl)phenyl)methanamine 2,2,2-trifluoroacetate], the pIC50 in experiment [1] is 4.52 to 6.00; in experiment [2], not below 6.30.

`CS(=O)(=O)N1CCN(C(=O)[C@H]2C[C@@H](c3ccccc3)CN(S(=O)(=O)c3cccc(CN)c3)C2)CC1` (racemic) [Example 78, cis-(1-((3-(Aminomethyl)phenyl)sulfonyl)-5-phenylpiperidin-3-yl)(4-(methylsulfonyl)piperazin-1-yl)methanone 2,2,2-trifluoroacetate]: the figures for the pIC50 in experiment [1] and in experiment [2] were less than 4.52 and 6.00 to 6.30, respectively.

In the case of `NCc1cncc(S(=O)(=O)N2C[C@@H](C(=O)N3CCOCC3)C[C@@H](c3ccccc3)C2)c1` (racemic) [Example 131, cis-(1-((5-(Aminomethyl)pyridin-3-yl)sulfonyl)-5-phenylpiperidin-3-yl)(morpholino)methanone 2,2,2-trifluoroacetate], the pIC50 in experiment [1] is less than 4.52; in experiment [2] it was 4.52 to 6.00.

For `CC(N)c1cccc(S(=O)(=O)N2C[C@H](C(=O)N3CCS(=O)(=O)CC3)C[C@@H](c3ccccc3)C2)c1` (mixture of isomers) [Example 106, trans-(1-((3-(1-Aminoethyl)phenyl)sulfonyl)-5-phenylpiperidin-3-yl) (1,1-dioxidothiomorpholino)methanone 2,2,2-trifluoroacetate], the pIC50 in experiment [1] and in experiment [2] was less than 4.52 throughout.
